Results taken from patent US20190119284A1, “ErbB Inhibitors and Uses Thereof” (The Regents of the University of California, priority 2016, published 2019).
Blank lines part the entries; values can stand above or below the compound they belong to.

Key:
[1] = biological target: T1, HER3 intracellular domain (665-1323) (Homo sapiens, UniProt P21860); test: HER3 intracellular domain autophosphorylation on vesicles; format: biochemical; details: 1 μM HER3 intracellular domain, 200 μM ATP
T1 construct: The HER3 intracellular domain (665-1323) was concentrated on vesicles; made in house
T1 sequence (P21860 684-1342): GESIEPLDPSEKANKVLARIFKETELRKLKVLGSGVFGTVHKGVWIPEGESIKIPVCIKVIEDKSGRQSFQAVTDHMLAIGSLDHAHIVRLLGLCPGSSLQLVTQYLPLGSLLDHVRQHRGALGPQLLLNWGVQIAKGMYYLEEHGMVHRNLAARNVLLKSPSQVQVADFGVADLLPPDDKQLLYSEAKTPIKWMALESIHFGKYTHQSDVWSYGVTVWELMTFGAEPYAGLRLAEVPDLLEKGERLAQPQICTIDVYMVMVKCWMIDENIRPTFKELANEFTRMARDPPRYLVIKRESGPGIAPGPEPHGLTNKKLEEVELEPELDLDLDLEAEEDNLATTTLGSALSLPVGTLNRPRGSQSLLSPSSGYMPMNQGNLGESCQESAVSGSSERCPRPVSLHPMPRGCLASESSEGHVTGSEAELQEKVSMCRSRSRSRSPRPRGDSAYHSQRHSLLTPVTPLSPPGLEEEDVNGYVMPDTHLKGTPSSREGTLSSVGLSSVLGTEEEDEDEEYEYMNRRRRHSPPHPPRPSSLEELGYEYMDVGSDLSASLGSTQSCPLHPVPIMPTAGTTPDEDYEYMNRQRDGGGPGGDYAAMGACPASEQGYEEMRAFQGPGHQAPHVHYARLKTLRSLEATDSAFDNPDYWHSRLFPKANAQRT
Protocol: FIG. 11. […] 1 μM of The HER3 intracellular domain (665-1323) was concentrated on vesicles and incubated with 200 μM ATP in the presence of varying concentrations of compound 2. HER3 kinase activity inhibition was evaluated by western blotting for autophosphorylation of HER3.

DYRK1B = DYRK1B (Homo sapiens, UniProt Q9Y463); test: Nanosyn in vitro kinase profiling: DYRK1B; format: biochemical
Sequence of DYRK1B (Q9Y463 whole entry, species assumed): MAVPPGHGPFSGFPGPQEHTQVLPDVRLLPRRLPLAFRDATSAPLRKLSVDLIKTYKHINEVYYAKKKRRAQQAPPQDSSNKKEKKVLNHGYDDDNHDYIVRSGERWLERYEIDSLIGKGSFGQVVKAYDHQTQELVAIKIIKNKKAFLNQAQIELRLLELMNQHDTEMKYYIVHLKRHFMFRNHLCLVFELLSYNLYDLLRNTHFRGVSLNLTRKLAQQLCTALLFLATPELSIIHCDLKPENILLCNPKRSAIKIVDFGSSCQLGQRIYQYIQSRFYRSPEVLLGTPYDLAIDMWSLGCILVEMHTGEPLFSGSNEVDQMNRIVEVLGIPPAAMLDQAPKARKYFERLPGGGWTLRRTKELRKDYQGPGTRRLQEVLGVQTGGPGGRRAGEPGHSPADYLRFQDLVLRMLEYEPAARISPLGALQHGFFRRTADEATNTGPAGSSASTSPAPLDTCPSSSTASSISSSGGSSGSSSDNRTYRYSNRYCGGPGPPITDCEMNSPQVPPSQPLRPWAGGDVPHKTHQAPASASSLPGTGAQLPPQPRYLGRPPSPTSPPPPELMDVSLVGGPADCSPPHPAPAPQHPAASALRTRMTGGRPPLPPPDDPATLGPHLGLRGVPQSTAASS
Protocol: (§1) This was confirmed by in vitro profiling against a panel of kinases, with compound 2 only showing potent inhibition of EGFR and Ab1 (Table 2).
(§2) In vitro Kinome Screen. In vitro profiling of compound 2 at 100 nM was conducted by Nanosyn.

TRKA = TRKA (Homo sapiens, UniProt P04629); test: Nanosyn in vitro kinase profiling: TRKA; format: biochemical
Sequence of TRKA (P04629 33-796, species assumed): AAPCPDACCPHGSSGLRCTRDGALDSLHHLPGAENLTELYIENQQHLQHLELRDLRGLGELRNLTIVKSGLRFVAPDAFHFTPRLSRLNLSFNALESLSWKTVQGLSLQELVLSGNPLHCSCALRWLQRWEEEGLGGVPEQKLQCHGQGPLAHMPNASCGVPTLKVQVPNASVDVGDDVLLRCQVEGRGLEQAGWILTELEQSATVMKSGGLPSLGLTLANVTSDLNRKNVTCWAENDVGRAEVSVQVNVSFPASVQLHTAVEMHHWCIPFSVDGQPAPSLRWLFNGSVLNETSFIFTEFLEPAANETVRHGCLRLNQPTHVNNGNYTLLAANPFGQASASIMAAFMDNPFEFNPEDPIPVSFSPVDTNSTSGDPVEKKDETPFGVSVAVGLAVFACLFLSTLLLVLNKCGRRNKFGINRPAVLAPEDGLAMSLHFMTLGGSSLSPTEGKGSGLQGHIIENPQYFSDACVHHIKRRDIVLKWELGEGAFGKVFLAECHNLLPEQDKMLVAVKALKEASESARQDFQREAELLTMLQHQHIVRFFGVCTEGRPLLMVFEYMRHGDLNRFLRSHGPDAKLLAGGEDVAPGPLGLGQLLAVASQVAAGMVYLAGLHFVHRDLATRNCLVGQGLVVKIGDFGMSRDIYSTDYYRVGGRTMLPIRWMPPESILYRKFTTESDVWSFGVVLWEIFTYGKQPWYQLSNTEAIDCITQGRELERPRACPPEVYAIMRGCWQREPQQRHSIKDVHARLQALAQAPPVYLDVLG
Protocol: as §1, §2

BLK = BLK (Homo sapiens, UniProt P51451); test: Nanosyn in vitro kinase profiling: BLK; format: biochemical
Sequence of BLK (P51451 whole entry): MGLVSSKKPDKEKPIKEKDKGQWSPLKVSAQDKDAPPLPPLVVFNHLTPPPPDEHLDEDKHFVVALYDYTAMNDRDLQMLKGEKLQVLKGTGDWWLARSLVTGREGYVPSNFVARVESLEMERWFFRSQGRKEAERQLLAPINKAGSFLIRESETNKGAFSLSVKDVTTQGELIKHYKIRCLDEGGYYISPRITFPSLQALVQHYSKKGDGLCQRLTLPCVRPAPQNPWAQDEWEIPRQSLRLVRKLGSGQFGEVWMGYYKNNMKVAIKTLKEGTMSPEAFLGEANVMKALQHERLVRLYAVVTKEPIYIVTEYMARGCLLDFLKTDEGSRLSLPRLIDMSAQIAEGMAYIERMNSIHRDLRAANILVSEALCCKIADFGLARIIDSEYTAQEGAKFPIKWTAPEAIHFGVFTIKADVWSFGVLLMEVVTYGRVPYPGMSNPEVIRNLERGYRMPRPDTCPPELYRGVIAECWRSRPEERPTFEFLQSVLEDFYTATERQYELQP
Protocol: as §1, §2

AKT1 = AKT1 (Homo sapiens, UniProt P31749); test: Nanosyn in vitro kinase profiling: AKT1; format: biochemical
Sequence of AKT1 (P31749 whole entry): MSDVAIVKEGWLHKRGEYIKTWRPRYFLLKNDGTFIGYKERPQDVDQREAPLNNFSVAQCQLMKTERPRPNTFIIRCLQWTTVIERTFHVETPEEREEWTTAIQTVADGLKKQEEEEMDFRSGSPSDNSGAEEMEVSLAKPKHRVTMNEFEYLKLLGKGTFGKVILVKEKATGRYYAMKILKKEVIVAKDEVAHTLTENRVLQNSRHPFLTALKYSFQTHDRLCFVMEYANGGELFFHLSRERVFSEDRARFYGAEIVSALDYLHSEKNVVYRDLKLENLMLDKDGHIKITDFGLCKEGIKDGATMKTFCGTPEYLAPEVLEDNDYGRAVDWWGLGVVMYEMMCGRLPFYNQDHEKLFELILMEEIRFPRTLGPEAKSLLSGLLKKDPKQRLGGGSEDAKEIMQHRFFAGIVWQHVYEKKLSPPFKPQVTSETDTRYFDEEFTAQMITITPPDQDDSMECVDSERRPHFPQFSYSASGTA
Protocol: as §1, §2

[2] = tested on: mutationally activated EGFR; test: proliferation assays of EGFR cell lines (FIG. 7C); format: cell-based; details: in contrast to lapatinib
CDK1 = CDK1 (Homo sapiens, UniProt P06493); test: Nanosyn in vitro kinase profiling: CDK1; format: biochemical; details: compound at 1 μM
Sequence of CDK1 (P06493 whole entry, species assumed): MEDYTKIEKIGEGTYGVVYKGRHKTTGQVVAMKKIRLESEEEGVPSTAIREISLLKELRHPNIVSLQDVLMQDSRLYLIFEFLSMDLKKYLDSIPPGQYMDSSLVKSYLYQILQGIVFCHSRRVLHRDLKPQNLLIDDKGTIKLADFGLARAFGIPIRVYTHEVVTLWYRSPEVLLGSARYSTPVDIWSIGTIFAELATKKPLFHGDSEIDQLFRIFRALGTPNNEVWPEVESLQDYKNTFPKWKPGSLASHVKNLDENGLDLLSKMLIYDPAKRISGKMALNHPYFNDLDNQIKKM
Sequence of CDK1 (P14635 whole entry partner, species assumed): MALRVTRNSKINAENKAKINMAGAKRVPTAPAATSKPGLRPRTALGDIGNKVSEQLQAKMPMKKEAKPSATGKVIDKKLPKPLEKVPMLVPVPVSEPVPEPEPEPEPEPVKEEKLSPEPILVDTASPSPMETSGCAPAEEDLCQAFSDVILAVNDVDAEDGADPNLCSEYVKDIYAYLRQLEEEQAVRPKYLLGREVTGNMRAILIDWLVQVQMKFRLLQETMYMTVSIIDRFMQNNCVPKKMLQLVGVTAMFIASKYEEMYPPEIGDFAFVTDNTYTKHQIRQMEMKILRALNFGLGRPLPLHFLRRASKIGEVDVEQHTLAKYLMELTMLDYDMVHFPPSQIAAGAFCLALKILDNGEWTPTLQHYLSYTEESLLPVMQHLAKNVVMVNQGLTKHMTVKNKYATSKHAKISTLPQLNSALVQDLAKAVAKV

[3] = tested on: HER2 overexpressing cell lines (BT-474, SK-BR-3); test: cell death with CellTox green (Incucyte Zoom), 72 h +/- NRG; format: cell-based; details: BT-474 and SK-BR-3, 72 h +/- NRG
Protocol: FIGS. 15A-15C. NRG rescues HER2 overexpressing cell lines from type 1.5 inhibitors but not compound 3. FIG. 15A. BT-474 cells were treated with the indicated concentrations of drugs in the presence or absence of NRG for 72 h. Cell death was determined using CellTox green with the Incucyte Zoom data are represented as mean values±SD (n=3). FIG. 15B. Same experiment as in FIG. 15A, but with SK-BR-3 cells. c. Cells were treated with 1 μM of the indicated inhibitor in the presence of varying concentrations of NRG. The lapatininb data is reproduced from FIG. 1C (mean value±SD, n=3).

TYK2 = TYK2 (Homo sapiens, UniProt P29597); test: Nanosyn in vitro kinase profiling: TYK2; format: biochemical; details: compound at 1 μM
PRKACA = PRKACA (Homo sapiens, UniProt P17612); test: Nanosyn in vitro kinase profiling: PRKACA; format: biochemical; details: compound at 1 μM
FaDu cells = test: 72 h proliferation of FaDu cells; format: cell-based
From the text: FIGS. 20A-20B. […] FIG. 20A. […] FIG. 20B.

[4] = biological target: T2, 2YF-L755S/3wt + NRG Ba/F3 cells (Homo sapiens, UniProt P04626, L755S/Y1005F/Y1023F/Y1112F/Y1127F/Y1139F/Y1196F/Y1221F/Y1222F/Y1248F, cells depend on it); test: Ba/F3 proliferation assay, 2YF-L755S/3wt + NRG; format: cell-based; details: Table 4; ± S.D., n = 2; read-out: IC50, 2YF-L755S/3wt + NRG
T2 construct: reported HER2 oncogenic mutants in the HER2YF construct
T2 sequence (P04626 whole entry L755S/Y1005F/Y1023F/Y1112F/Y1127F/Y1139F/Y1196F/Y1221F/Y1222F/Y1248F): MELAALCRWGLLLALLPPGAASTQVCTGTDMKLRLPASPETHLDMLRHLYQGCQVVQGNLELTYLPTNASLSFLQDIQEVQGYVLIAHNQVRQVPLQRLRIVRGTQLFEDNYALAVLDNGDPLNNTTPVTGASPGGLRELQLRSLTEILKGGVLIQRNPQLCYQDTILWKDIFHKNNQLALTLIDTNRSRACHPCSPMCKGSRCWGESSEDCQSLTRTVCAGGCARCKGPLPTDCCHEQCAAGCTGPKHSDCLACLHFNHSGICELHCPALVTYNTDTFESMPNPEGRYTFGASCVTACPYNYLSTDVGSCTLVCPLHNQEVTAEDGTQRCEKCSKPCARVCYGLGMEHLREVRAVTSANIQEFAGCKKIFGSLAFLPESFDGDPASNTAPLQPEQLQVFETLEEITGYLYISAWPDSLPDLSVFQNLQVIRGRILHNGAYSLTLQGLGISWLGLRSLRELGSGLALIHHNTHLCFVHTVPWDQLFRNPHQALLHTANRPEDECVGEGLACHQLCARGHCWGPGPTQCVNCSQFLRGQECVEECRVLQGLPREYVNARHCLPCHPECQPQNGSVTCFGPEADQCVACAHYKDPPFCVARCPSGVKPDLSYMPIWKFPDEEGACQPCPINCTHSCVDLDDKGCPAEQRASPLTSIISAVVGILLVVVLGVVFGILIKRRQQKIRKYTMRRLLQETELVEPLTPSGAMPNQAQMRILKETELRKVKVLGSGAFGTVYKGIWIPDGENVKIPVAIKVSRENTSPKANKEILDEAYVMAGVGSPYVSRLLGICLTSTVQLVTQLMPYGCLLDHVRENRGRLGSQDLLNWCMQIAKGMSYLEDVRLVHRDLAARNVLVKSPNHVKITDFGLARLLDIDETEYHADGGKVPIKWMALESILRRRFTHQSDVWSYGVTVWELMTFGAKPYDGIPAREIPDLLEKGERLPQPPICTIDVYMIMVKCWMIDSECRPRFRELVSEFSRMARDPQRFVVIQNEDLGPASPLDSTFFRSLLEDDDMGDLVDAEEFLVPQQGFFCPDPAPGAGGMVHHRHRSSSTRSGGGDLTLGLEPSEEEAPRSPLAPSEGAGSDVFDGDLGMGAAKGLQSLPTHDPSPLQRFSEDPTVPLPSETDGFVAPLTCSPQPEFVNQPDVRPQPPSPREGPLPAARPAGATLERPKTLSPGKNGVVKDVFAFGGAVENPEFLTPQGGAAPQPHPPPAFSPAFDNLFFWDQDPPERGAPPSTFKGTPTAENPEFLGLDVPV
Protocol: For the 2YF/3wt cells, the parental cells were first transduced with HER3 according to the protocol above and were then spun down at 500×g for 5 min and re-suspended in media supplemented with 10 ng/mL IL-3 and 3 μg/mL puromycin (Invitrogen). Cells were maintained in these conditions for seven days, passaging as required. After seven days the cells were spun down, washed with fresh media, and then used for a subsequent round of transduction according to the protocol above with HER2YF virus. […] The cells were maintained in these conditions for seven days, passaging as required. After seven days the cells were spun down, washed with fresh media, and then suspended in media supplemented with 10 ng/mL of NRG. Cells were maintained in these conditions for seven days to select for a NRG dependent population of 2YF/3wt Ba/F3 cells that were then maintained as described above. The same protocol was used for the 2YF-L755S/3wt, 2YF-YVMA/3wt, and 2YF-VC/3wt cell lines using the indicated constructs.
Proliferation Assays. […] The following day media was changed to fresh media that contained either DMSO or the indicated concentration of drug plus NRG (50 ng/mL final concentration) as indicated. […] For all normalized assays, proliferation was normalized to the DMSO control condition. […]

wt EGFR = biological target: T3, wt EGFR (Homo sapiens, UniProt P00533); test: phosphosite signaling on wt EGFR; format: cell-based
T3 construct: leaving the same phosphosites on wt EGFR relatively unaffected up to 1 μM; endogenous in cells

JAK1 = JAK1 (Homo sapiens, UniProt P23458); test: Nanosyn in vitro kinase profiling: JAK1; format: biochemical; details: compound at 1 μM
PI3K-ALPHA = PI3K-ALPHA (Homo sapiens, UniProt P42336); test: Nanosyn in vitro kinase profiling: PI3K-ALPHA; format: biochemical; details: compound at 1 μM
[5] = biological target: mutationally activated forms of EGFR (Homo sapiens, UniProt P00533, DEL746-750); test: EGFR phosphosite signaling in HCC 827 cells; format: cell-based; set-up: endogenous in cells; host or cells: HCC 827 (A1); details: concentration giving near complete inhibition
[6] = tested on: HER2 mutants biased towards the active conformation (NCI-H1781 cells); test: signaling in NCI-H1781 cells after 15 min; format: cell-based; details: NCI-H1781, dose response
[7] = tested on: HER2/HER3 signaling in SK-BR-3 cells; test: HER2/HER3 signaling in SK-BR-3 cells (immunoblot); format: cell-based; details: serum-starved SK-BR-3 cells; drug added 15 min before NRG
Protocol: Immunoblotting. Cells were grown in 6 well plates and treated according to the indicated conditions at which point the media was aspirated, cells were washed with 1 mL of cold PBS, which was then aspirated and the plates were frozen at −80° C. The frozen cells were thawed on the plates in a buffer containing 50 mM Tris pH 7.5, 150 mM NaCl, 1 mM EDTA, and 1% Triton X-100 supplemented with 1× phosphatase (PhoSTOP, Roche) and 1× protease (complete-mini tablets, Roche) inhibitors. Lysates were scraped, transferred to Eppendorf tubes, and cleared by centrifugation at 20,000×g for 20 min at 4° C. The clarified lysates were transferred to chilled, clean tubes, and normalized for protein concentration by Bradford (Bio-Rad). […] Primary antibodies were detected using IRDye secondary antibodies (Li-Cor) according to the manufacturer's recommendations and scanned on an Odyssey imager (Li-Cor).

[8] = tested on: HER2/HER3 signaling in CW-2 cells (HER3 E928G); test: HER2/HER3 signaling in CW-2 cells +/- NRG, 1 h; format: cell-based; details: CW-2, dose response

binding to HER3 / inhibition of HER3 autophosphorylation [1]: binds to the active site of HER3
inhibition at 0.1 µM (DYRK1B; compound at 100 nM): 4.01%
inhibition at 1 µM (DYRK1B; compound at 1 μM): 22.6%
inhibition at 0.1 µM (TRKA; compound at 100 nM): 2.38%
inhibition at 1 µM (TRKA; compound at 1 μM): 4.5%
inhibition at 0.1 µM (BLK; compound at 100 nM): 59.9%
inhibition at 1 µM (BLK; compound at 1 μM): 90.4%
inhibition at 0.1 µM (AKT1; compound at 100 nM): 14.3%
inhibition at 1 µM (AKT1; compound at 1 μM): 33%
SMILES: COc1ccc(-c2ccco2)cc1Nc1ncnc2[nH]nc(-c3ccco3)c12 [compound 2, 3-(furan-2-yl)-N-(5-(furan-2-yl)-2-methoxyphenyl)-1H-pyrazolo[3,4-d]pyrimidin-4-amine]

inhibition at 1 µM (CDK1): 18%
inhibition at 1 µM (TYK2): 51%
inhibition at 1 µM (PRKACA): 20%
GI50 [4]: 38.2 ± 2.9 nM
same phosphosites on wt EGFR relatively unaffected up to (wt EGFR): > 1 µM
inhibition at 1 µM (JAK1): 52%
inhibition at 1 µM (PI3K-ALPHA): 6%
near complete inhibition of multiple phosphosites on EGFR [5]: less than 10 nM
SMILES: COc1ccc(-c2ccoc2)cc1Nc1ncnc2[nH]cc(-c3cc[nH]n3)c12 [compound 3, N-(5-(furan-3-yl)-2-methoxyphenyl)-5-(1H-pyrazol-3-yl)-7H-pyrrolo[2,3-d]pyrimidin-4-amine]
preferential inhibition in proliferation assays [2]: preferential inhibition of the mutationally activated EGFR
rescue by NRG [3]: not
inhibition of proliferation relative to current HER2 inhibitors (FaDu cells): more effective than current HER2 inhibitors

SMILES: CS(=O)(=O)CCNCc1ccc(-c2ccc3ncnc(Nc4ccc(OCc5cccc(F)c5)c(Cl)c4)c3c2)o1 [lapatinib]
binding to HER2 mutants judged by signaling after short treatment [6]: does not efficiently bind to HER2 mutants biased towards the active conformation
concentration sufficient to inhibit the entire RTK signaling pathway [7]: greater than 100 nM
HER2/HER3 signaling +/- NRG [8]: NRG rescues HER2/HER3 signaling
